A short description of the series: surface tension of components. It is filed as physicochemical.

For the molecule `Fc1c(F)c(F)c2c(c1F)c(F)c(F)c1c(F)c(F)c(F)c(F)c12` [perfluorophenanthrene], the “surface tension σ” value stood at 19 mNm. With `CC[N+]1(CC)CC[N+](CC)(CC)CC1.O=C([O-])C(F)(F)C(F)(F)C(F)(F)C(F)(F)C(F)(F)C(F)(F)C(F)(F)F.O=C([O-])C(F)(F)C(F)(F)C(F)(F)C(F)(F)C(F)(F)C(F)(F)C(F)(F)F` [tetraethylpiperazinium salt of perfluorooctanoic acid] the figure was 15.9 mNm.

perfluoroalkylethanol oxethylate: the “surface tension σ” value turned out to be 19 mNm.
